Measurements: US20240002429A1, “PRODRUG OF 5a-HYDROXY-6ß-[2-(1H-IMIDAZOL-4-YL)ETHYLAMINO]CHOLESTAN-3ß-OL AND PHARMACEUTICAL COMPOSITIONS COMPRISING SAME FOR USE IN THE TREATMENT OF CANCER” (priority 2020, published 2024)
Where two headings read alike, the source gives them in different places.

Key:
4T1 cells = experiment: Cytotoxicity on 4T1 cells, CellTox Green Cytotoxicity Assay; format: cell-based, murine; settings: Mus musculus, 4T1, Green Cytotoxicity Assay, 48 h
Description: The cellular viability tests were carried out on murine mammary tumor 4T1 cells characterized as negative triples (HER2−, ER−, PR−).
For this experiment, a cell culture medium was prepared. The culture medium consists of Dulbecco's Modified Eagle Medium (DMEM, marketed by Westburg under the reference LO BE12-604F), comprising 4.5 g/L glucose with L-glutamine, to which 10% of fetal calf serum (FCS) and 50 U/mL of penicillin/streptomycin are added. The 4T1 cells are introduced into this culture medium.
96-well plates were seeded with 2000 4T1 cells per well. After 72 hours (h) of culture in normal conditions, i.e. in an incubator at a temperature of 37° C. at 5% CO2, the 4T1 cells are treated for 48 h with DX101, DX107, DX113, DX117, DX119, DX121 or DX131 at 100 nM, 1 μM, 2.5 μM and 10 μM. A control condition (CTL) is also carried out in parallel using the protocol described above but without treatment with the molecules DX101, DX107, DX113, DX117, DX119, DX121, DX131 or DX133.
For the third method, the percentage viability is determined using the kit CellTox Green Cytotoxicity Assay (Promega). This assay measures cell death via a change in membrane integrity. […] As a result, the higher the fluorescence in the wells, the greater is the cell death. After 48 h of treatment, the cells are incubated for a minimum of 15 minutes in the presence of the Celltox green reagent at room temperature and the fluorescence is read at […]. The percentage cell death is determined using the control 100% of cell death (carried out for untreated cells incubated in the presence of the lysis solution for 30 minutes at 37° C. before adding the Celltox green reagent), and the cellular viability in each well is then deduced from this percentage. IC50 is then determined as explained above.

[1] = tested on: BT-474 human mammary tumor cells; experiment: Cytotoxicity on BT-474 cells, LDH; format: cell-based; settings: BT-474, LDH, 48 h; for Mean LogIC50 (±SEM): log of IC50 in μM; for IC50: Homo sapiens, read-out: IC50
Description: For the second method, the percentage viability is determined using assay of the activity of the enzyme LDH (lactate dehydrogenase) in the cellular supernatants using the kit non radioactive cytotoxicity assay kit (Promega). LDH is an enzyme released in the supernatant of dead cells. The higher the LDH activity in the supernatant, the greater is the cell death. In this enzyme test, the LDH released converts a violet tetrazolium salt to formazan, of red color, absorbing at 490 nm. The intensity of the red color is proportional to the number of dead cells. After 48 h of treatment, the supernatants are transferred to a new 96-well plate and are incubated for 30 minutes in the presence of the substrate mix at room temperature. The reaction is stopped using the stop buffer and the absorbance is determined at 490 nm. The percentage cell death is determined here using a control 100% of maximum activity of LDH (carried out with untreated cells incubated in the presence of the lysis solution for 45 minutes at 37° C. just before adding the substrate mix), and the cellular viability in each well is then deduced from this percentage. IC50 is then determined as explained in the preceding paragraph.
(§1) The cellular viability tests were also carried out on BT-474 human mammary tumor cells (characterized as being positive triples HER2+, ER+, PR+). The BT-474 cells are in a cell culture medium identical to the preceding example and are seeded in 24-well plates at 70 000 cells per well, for determination of cellular viability using trypan blue, or in 96-well plates at 13 000 cells per well for determination of cellular viability using the MTT or LDH assay. After 96 hours (h) of culture in normal conditions, i.e. in an incubator at a temperature of 37° C. at 5% CO2, the BT-474 cells are treated for 48 h with DX101, DX107, and DX113 at 100 nM, 1 μM, 2.5 μM and 10 μM. A control is also carried out using the protocol described above but without treatment with the molecules DX101, DX107, DX113, DX117, DX119, DX121 or DX131.
(§2) After trypsin digestion for 10 minutes at 37° C., cell survival was quantified, also by a trypan blue assay with automatic counting with the Biorad TC20 equipment (TC20™ Automated Cell Counter). The trypan blue assay is based on the cell membrane integrity, which is broken in the dead cells. Trypan blue stains the dead cells blue. The Biorad TC20 cell counter counts the proportion of blue cells and non-blue cells, relative to the cell percentages. The percentage viability is then determined in each well relative to the untreated cells and the IC50 is determined as explained in the preceding example. The percentage viability of the BT-474 cells was determined using the MTT and LDH assay, carried out as described in the preceding example.

[2] = Pharmacokinetic study of DX121 (LC/MS in plasma); format: in vivo; settings: rat, oral 50 mg/kg, administered compound assayed
Excerpt: (§3) The following study is a determination by LC/MS in plasma of the various molecules over 3 days (11 measurement points at the end). The graphs are always presented in comparison with DX101, which is the reference. […]

[3] = Pharmacokinetic study of DX107 (LC/MS in plasma); format: in vivo; settings: rat, oral 50 mg/kg, administered compound assayed; for Area under curve: 0-72 h
Excerpt: The following study is determination by LC/MS in plasma of the various molecules over 3 days (11 measurement points at the end). The graphs are always presented in comparison with DX101, which is the reference. […]

[4] = tested on: BT-474 human mammary tumor cells; experiment: Cytotoxicity on BT-474 cells, MTT; format: cell-based; settings: BT-474, MTT, 48 h; for Mean LogIC50 (±SEM): log of IC50 in μM; for IC50: Homo sapiens, read-out: IC50
Description: Cellular viability is measured by three different methods. For the first method, MTT labeling is carried out at 48 hours. This test is based on the use of the tetrazolium salt MTT (3-(4,5-dimethylthiazol-2-yl)-2,5-diphenyltetrazolium bromide). The tetrazolium is reduced by mitochondrial succinate dehydrogenase of active living cells, to formazan, a precipitate of a violet color. The quantity of precipitate formed is proportional to the quantity of living cells but also to the metabolic activity of each cell. […] After 48 hours, the medium is aspirated, and the cells are incubated with MTT (0.5 mg/ml in culture medium) for about 3 hours. The MTT solution is aspirated and the violet crystals are dissolved in dimethylsulfoxide (DMSO). The OD (optical density) is measured at 550 nm. The percentage viability is then determined in each well relative to the CTL and the IC50 (concentration for which there are still 50% of living cells) is determined for each molecule with Prism software using the nonlinear regression straight line (log(inhibitor) vs. Response).
as §1, §2

[5] = Pharmacokinetic study of DX117 (LC/MS in plasma); format: in vivo; settings: rat, 50 mg/kg, administered compound assayed
Excerpt: as §3

[6] = log of IC50 in μM, read-out: Mean LogIC50 (±SEM) (converted)

SMILES	IC50 (4T1 cells; [6]) [µM]	IC50 (4T1 cells; read-out: IC50) [µM]	Mean LogIC50 (±SEM) [1]	IC50 [1] [µM]	Concentration max [2] [nM]	Area under curve ([2]; 0-72 h)	Concentration max [3] [nM]	Area under curve [3]	Mean LogIC50 (±SEM) [4]	IC50 [4] [µM]	Concentration max [5] [nM]	Area under curve ([5]; 0-72 h)
CC(C)CCC[C@@H](C)[C@H]1CC[C@H]2[C@@H]3C[C@@H](NCCc4c[nH]cn4)[C@@]4(O)C[C@@H](O)CC[C@]4(C)[C@H]3CC[C@]12C [DX101, 5α-hydroxy-6β-[2-(1H-imidazol-4-yl)-ethylamino]-cholestan-3β-ol, reference compound]	3.55	3.55	0.99 ± 0.06	9.72	150	3019	140	143297	0.85 ± 0.02	7.06	150	3019
CCC(=O)O[C@H]1CC[C@]2(C)[C@H]3CC[C@]4(C)[C@@H]([C@H](C)CCCC(C)C)CC[C@H]4[C@@H]3C[C@@H](NCCc3c[nH]cn3)[C@@]2(O)C1 [DX107, 5α-hydroxy-6β-[2-(1H-imidazol-4-yl)ethylamino]cholestan-3β-yl propionate]	2.34	2.33	0.95 ± 0.08	8.92	–	–	142	89733	1.08 ± 0.04	11.9	–	–
